# Measured values published in US11407767B2, “Heterocyclyl substituted pyrrolopyridines that are inhibitors of the CDK12 kinase” (The University of Nottingham, priority 2017, dated 2022).
# pIC50: −log10 of the molar value.
# Tests used:
# DM1 fibroblasts = assay: Nuclear foci assay; assay type: cell-based; settings: Fibroblast; DM1 fibroblasts treated for 24 hours, 11 point dilution 20 μM-19 nM, in situ hybridisation with cy3 labelled CAG10 probe
# Procedure: DM1 fibroblasts were treated with compounds in an 11 point dilution series from 20 μM-19 nM for 24 hours. Following treatment, fluorescent in situ hybridisation was performed with a cy3 labelled CAG10 probe, to visualize nuclear foci and cells were analysed on a Molecular Devices plate reader with customised MetaExpress software (Ketley, A. et al. (2014). Hum Mol Genet, 23: 1551-1562). Compounds that reduced nuclear foci in a concentration dependent manner, compared to DMSO treated cells were identified.
# CDK12/CycK = CDK12/CycK (Homo sapiens, UniProt Q9NYV4); assay: Inhibition of CDK12 (ADP-Glo kinase assay); assay type: biochemical; settings: 60 nM CDK12/CycK, 30 minutes pre-incubation, 1 μM ATP, 0.5 μM RBER-IRStide substrate, 1 h at 25° C., read-out: CDK12/cyclin K IC50
# Outline: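 Compounds pre-incubated 30 min with 60 nM CDK12/CycK in HEPES pH 7.5 buffer with Mg2+/Mn2+, 1% DMSO final. Reaction started with 1 μM ATP and 0.5 μM RBER-IRStide, run 1 h at 25 °C; ADP-Glo luminescence, no-kinase blank subtracted, IC50 from sigmoidal fit of % inhibition.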
# Sequence of CDK12/CycK (Q9NYV4 whole entry): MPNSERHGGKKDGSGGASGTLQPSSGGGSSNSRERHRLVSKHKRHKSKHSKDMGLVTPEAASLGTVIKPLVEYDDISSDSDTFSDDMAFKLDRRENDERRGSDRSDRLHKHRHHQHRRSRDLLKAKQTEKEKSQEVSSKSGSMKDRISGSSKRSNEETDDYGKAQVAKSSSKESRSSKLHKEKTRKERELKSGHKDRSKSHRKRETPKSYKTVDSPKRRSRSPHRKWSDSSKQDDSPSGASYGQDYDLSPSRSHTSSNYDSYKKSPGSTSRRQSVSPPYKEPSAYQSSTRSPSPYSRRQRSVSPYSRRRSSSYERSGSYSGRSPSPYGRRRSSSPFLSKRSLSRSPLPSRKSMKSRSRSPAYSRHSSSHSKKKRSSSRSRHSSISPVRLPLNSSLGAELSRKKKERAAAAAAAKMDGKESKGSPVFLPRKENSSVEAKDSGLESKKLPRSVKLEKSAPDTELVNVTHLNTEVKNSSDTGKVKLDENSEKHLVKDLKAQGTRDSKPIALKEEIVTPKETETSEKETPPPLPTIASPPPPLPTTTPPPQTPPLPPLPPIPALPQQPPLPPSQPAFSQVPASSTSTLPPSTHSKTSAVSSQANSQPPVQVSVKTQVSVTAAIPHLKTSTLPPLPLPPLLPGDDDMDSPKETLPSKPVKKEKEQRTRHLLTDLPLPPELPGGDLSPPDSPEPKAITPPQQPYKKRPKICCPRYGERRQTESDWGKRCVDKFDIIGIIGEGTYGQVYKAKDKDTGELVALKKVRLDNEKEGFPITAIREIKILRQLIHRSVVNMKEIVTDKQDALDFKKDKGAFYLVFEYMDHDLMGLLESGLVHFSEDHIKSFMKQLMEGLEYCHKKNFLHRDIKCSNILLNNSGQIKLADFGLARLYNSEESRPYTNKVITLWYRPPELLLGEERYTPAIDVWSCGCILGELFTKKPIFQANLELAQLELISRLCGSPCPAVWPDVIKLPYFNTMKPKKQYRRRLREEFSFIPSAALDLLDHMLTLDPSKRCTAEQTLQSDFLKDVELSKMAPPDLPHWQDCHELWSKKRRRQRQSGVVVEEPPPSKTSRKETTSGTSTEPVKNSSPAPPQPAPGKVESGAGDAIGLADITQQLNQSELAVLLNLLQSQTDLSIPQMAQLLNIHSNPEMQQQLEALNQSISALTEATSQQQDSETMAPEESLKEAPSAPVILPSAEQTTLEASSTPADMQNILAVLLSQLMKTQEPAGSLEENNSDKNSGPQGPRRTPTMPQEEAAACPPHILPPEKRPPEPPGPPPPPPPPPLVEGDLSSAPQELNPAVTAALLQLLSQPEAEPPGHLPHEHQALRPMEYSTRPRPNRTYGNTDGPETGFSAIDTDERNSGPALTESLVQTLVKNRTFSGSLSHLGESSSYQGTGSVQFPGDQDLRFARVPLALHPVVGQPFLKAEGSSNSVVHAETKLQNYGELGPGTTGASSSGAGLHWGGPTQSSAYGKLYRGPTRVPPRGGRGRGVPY
# Sequence of CDK12/CycK (O75909 whole entry partner): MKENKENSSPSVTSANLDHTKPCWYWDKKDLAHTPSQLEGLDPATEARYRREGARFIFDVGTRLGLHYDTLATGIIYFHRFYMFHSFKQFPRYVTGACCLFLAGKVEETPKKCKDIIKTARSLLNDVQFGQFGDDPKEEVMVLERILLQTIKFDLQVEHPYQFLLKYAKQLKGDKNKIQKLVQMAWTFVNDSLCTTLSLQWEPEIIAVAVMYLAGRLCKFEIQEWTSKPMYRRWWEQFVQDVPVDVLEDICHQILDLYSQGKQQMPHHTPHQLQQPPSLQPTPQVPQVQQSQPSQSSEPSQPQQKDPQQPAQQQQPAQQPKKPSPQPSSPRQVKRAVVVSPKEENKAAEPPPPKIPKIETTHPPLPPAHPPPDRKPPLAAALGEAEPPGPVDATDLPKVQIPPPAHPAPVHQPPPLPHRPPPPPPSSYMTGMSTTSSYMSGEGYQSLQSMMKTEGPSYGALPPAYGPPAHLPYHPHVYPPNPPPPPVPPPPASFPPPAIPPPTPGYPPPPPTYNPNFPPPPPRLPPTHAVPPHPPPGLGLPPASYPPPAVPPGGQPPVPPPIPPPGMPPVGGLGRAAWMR
SMILES,pIC50 (CDK12/CycK),pIC50 (DM1 fibroblasts)
"CN(C)C/C=C/C(=O)Nc1cccc(C(=O)NCCc2cc3c(-c4cnn5ncccc45)ccnc3[nH]2)c1 [Example 200, (E)-3-(4-(Dimethylamino)but-2-enamido)-N-(2-(4-(pyrazolo[1,5-b]pyridazin-3-yl)-1H-pyrrolo[2,3-b]pyridin-2-yl)ethyl)benzamide]",6.00 to 7.00,4.00 to 5.00
"C=CC(=O)N1CC2(CC2)C[C@H]1C(=O)NCCc1cc2c(-c3cnn4ncccc34)ccnc2[nH]1 [Example 208, (S)-5-Acryloyl-N-(2-(4-(pyrazolo[1,5-b]pyridazin-3-yl)-1H-pyrrolo[2,3-b]pyridin-2-yl)ethyl)-5-azaspiro[2.4]heptane-6-carboxamide]",> 7.00,5.00 to 6.00
"N#CN1CCC[C@H](C(=O)NCCc2cc3c(-c4cnn5ncccc45)ccnc3[nH]2)C1 [Example 210, (S)-1-cyano-N-(2-(4-(pyrazolo[1,5-b]pyridazin-3-yl)-1H-pyrrolo[2,3-b]pyridin-2-yl)ethyl)piperidine-3-carboxamide]",6.00 to 7.00,5.00 to 6.00
"C=CC(=O)NC(C)C(=O)NCCc1cc2c(-c3cnn4ncccc34)ccnc2[nH]1 (stereo not shown) [Example 212, N-(1-oxo-1-((2-(4-(pyrazolo[1,5-b]pyridazin-3-yl)-1H-pyrrolo[2,3-b]pyridin-2-yl)ethyl)amino)propan-2-yl)acrylamide]",6.00 to 7.00,5.00 to 6.00
"C=CC(=O)N1CCC[C@H]1C(=O)OCCc1cc2c(-c3cnn4ncccc34)ccnc2[nH]1 [Example 213, 2-(4-(Pyrazolo[1,5-b]pyridazin-3-yl)-1H-pyrrolo[2,3-b]pyridin-2-yl)ethyl acryloyl-L-prolinate]",6.00 to 7.00,> 6.00

# Further lines, with some results ahead:
pIC50 (CDK12/CycK),SMILES,pIC50 (DM1 fibroblasts)
> 7.00,"C=CC(=O)Nc1cc(C(=O)N2CCC(c3cc4c(-c5cnn6ncccc56)ccnc4[nH]3)C2)ccc1OC (stereo not shown) [Example 204, N-(2-Methoxy-5-(3-(4-(pyrazolo[1,5-b]pyridazin-3-yl)-1H-pyrrolo[2,3-b]pyridin-2-yl)pyrrolidine-1-carbonyl)phenyl)acrylamide]",> 6.00
> 7.00,"C=CC(=O)N1C[C@H](F)C[C@H]1C(=O)NCCc1cc2c(-c3cnn4ncccc34)ccnc2[nH]1 [Example 207, (2S,4R)-1-Acryloyl-4-fluoro-N-(2-(4-(pyrazolo[1,5-b]pyridazin-3-yl)-1H-pyrrolo[2,3-b]pyridin-2-yl)ethyl)pyrrolidine-2-carboxamide]",> 6.00
6.00 to 7.00,"C=CC(=O)NC(Cc1ccccc1)C(=O)NCCc1cc2c(-c3cnn4ncccc34)ccnc2[nH]1 (stereo not shown) [Example 211, N-(1-Oxo-3-phenyl-1-((2-(4-(pyrazolo[1,5-b]pyridazin-3-yl)-1H-pyrrolo[2,3-b]pyridin-2-yl)ethyl)amino)propan-2-yl)acrylamide]",5.00 to 6.00
